# Assays:
# MCF7 [1] = test: Resistance factor, ratio of IC50 for human MCF7 cells expressing P-glycoprotein to IC50 for P-glycoprotein deficient wild type human MCF7 cells; format: functional
# MCF7 [2] = test: Cytotoxicity against human MCF7 cells expressing P-glycoprotein after 72 hrs; format: functional, cell-based; settings: MCF7, 72 h
# HT-29 = test: Cytotoxicity against human HT-29 cells after 72 hrs; format: functional, cell-based; settings: HT-29, 72 h
# PANC-1 = test: Cytotoxicity against human PANC1 cells expressing mdr1, mrp1, mrp2, lrp genes after 72 hrs; format: functional, cell-based; settings: PANC-1, 72 h
# MCF7 [3] = test: Cytotoxicity against P-glycoprotein deficient wild type human MCF7 cells after 72 hrs; format: functional, cell-based; settings: MCF7, 72 h
# [4] = Resistance factor, ratio of IC50 for human LCC-6 cells expressing P-glycoprotein to IC50 for P-glycoprotein deficient wild type human LCC-6 cells; format: functional; parameters: reference not given here
# [5] = Cytotoxicity against P-glycoprotein deficient wild type human LCC-6 cells after 72 hrs; format: functional, cell-based; settings: LCC-6, 72 h
# MCF7 [6] = test: Resistance factor, ratio of IC50 for P-glycoprotein deficient wild type human MCF7 cells to IC50 for multidrug-resistant human NCI/ADR cells; format: functional
# [7] = Cytotoxicity against human LCC-6 cells expressing P-glycoprotein after 72 hrs; format: functional, cell-based; settings: LCC-6, 72 h
# A2780 [8] = test: Cytotoxicity against human wild type A2780 cells after 72 hrs; format: functional, cell-based; settings: A2780, 72 h
# [9] = Cytotoxicity against multidrug-resistant human NCI/ADR cells after 72 hrs; format: functional, cell-based; settings: NCI/ADR-RES
# A2780 [10] = test: Cytotoxicity against human topotecan-resistant A2780 cells after 72 hrs; format: functional, cell-based; settings: A2780, 72 h
# [11] = Cytotoxicity against human A2780/ADR cells after 72 hrs; format: functional, cell-based
# [12] = Cytotoxicity against human paclitaxel and cyclosporine-resistant A2780TC3 cells overexpressing class 3 beta-tubulin after 72 hrs; format: functional, cell-based; settings: A2780TC3, 72 h
# [13] = Cytotoxicity against human paclitaxel and cyclosporine-resistant A2780TC1 cells overexpressing class 3 beta-tubulin after 72 hrs; format: functional, cell-based; settings: A2780TC1, 72 h
# A2780 [14] = test: Cytotoxicity against human cisplatin-resistant A2780 cells after 72 hrs; format: functional, cell-based; settings: A2780, 72 h
SMILES,IC50 (MCF7 [3]),Ratio [4],IC50 [5],Ratio (MCF7 [6]),other results
CC(=O)O[C@@]12CO[C@@H]1C[C@H](O)[C@@]1(C)C(=O)[C@H](OC(=O)N(C)C)C3=C(C)[C@@H](OC(=O)[C@H](O)[C@H](C=C(F)F)NC(=O)OC(C)(C)C)C[C@@](O)([C@@H](OC(=O)c4ccccc4)[C@H]21)C3(C)C,0.13 nM,,,,Ratio (MCF7 [1]): 33; IC50 (MCF7 [2]): 4.3 nM; IC50 (HT-29): 0.46 nM; IC50 (PANC-1): 1.58 nM
CCC(=O)O[C@H]1C(=O)[C@@]2(C)[C@H]([C@H](OC(=O)c3cccc(OC)c3)[C@]3(O)C[C@H](OC(=O)[C@H](O)[C@H](CC(C)C)NC(=O)OC4CCCC4)C(C)=C1C3(C)C)[C@]1(OC(C)=O)CO[C@@H]1C[C@@H]2O,,3.4,0.76 nM,6.9,
CC(=O)O[C@H]1C(=O)[C@@]2(C)[C@H]([C@H](OC(=O)c3ccccc3)[C@]3(O)C[C@H](OC(=O)[C@H](O)[C@H](C=C(F)F)NC(=O)OC(C)(C)C)C(C)=C1C3(C)C)[C@]1(OC(C)=O)CO[C@@H]1C[C@@H]2O,0.099 nM,,,,Ratio (MCF7 [1]): 9.6; IC50 (MCF7 [2]): 0.95 nM; IC50 (HT-29): 0.41 nM; IC50 (PANC-1): 1.19 nM
CC(=O)O[C@H]1C(=O)[C@@]2(C)[C@H]([C@H](OC(=O)c3ccccc3)[C@]3(O)[C@H]4OC/C=C\OCc5ccccc5C(=O)N[C@@H](c5ccccc5)[C@@H](O)C(=O)O[C@@H]4C(C)=C1C3(C)C)[C@]1(OC(C)=O)CO[C@@H]1C[C@@H]2O,196 nM,,348 nM,,IC50 [7]: 1920 nM; IC50 (HT-29): 62 nM; IC50 (A2780 [8]): 198 nM; IC50 [9]: 1140 nM
CCC(=O)O[C@H]1C(=O)[C@@]2(C)[C@H]([C@H](OC(=O)c3ccccc3)[C@]3(O)C[C@H](OC(=O)[C@H](O)[C@H](C=C(F)F)NC(=O)OC(C)(C)C)C(C)=C1C3(C)C)[C@]1(OC(C)=O)CO[C@@H]1C[C@@H]2O,0.12 nM,,,,Ratio (MCF7 [1]): 10; IC50 (MCF7 [2]): 1.2 nM; IC50 (HT-29): 0.34 nM; IC50 (PANC-1): 0.65 nM
CCC(=O)O[C@H]1C(=O)[C@@]2(C)[C@H]([C@H](OC(=O)c3ccccc3)[C@]3(O)C[C@H](OC(=O)[C@H](O)[C@H](C=C(C)C)NC(=O)C4CCCC4)C(C)=C1C3(C)C)[C@]1(OC(C)=O)CO[C@@H]1C[C@@H]2O,,17,1.1 nM,20,
CC(=O)O[C@H]1C(=O)[C@@]2(C)[C@H]([C@H](OC(=O)c3ccccc3)[C@]3(O)[C@H]4OC/C=C/Cc5ccccc5C(=O)N[C@@H](C=C(C)C)[C@@H](O)C(=O)O[C@@H]4C(C)=C1C3(C)C)[C@]1(OC(C)=O)CO[C@@H]1C[C@@H]2O,398 nM,,130 nM,,IC50 [7]: 618 nM; IC50 [9]: 1000 nM
COc1cccc(C(=O)O[C@H]2[C@@H]3[C@]4(OC(C)=O)CO[C@@H]4C[C@H](O)[C@@]3(C)C(=O)[C@H](OC(=O)c3ccccc3OC)C3=C(C)[C@@H](OC(=O)[C@H](O)[C@H](C=C(C)C)NC(=O)OC(C)(C)C)C[C@]2(O)C3(C)C)c1,,2.3,0.4 nM,3,
CCC(=O)O[C@H]1C(=O)[C@@]2(C)[C@H]([C@H](OC(=O)c3ccccc3)[C@]3(O)C[C@H](OC(=O)[C@H](O)[C@H](CC(C)C)NC(=O)OC4CCCCC4)C(C)=C1C3(C)C)[C@]1(OC(C)=O)CO[C@@H]1C[C@@H]2O,,3.8,4.8 nM,10,
CCC(=O)O[C@H]1C(=O)[C@@]2(C)[C@H]([C@H](OC(=O)c3cccc(OC)c3)[C@]3(O)C[C@H](OC(=O)[C@H](O)[C@H](CC(C)C)NC(=O)C4CCCCC4)C(C)=C1C3(C)C)[C@]1(OC(C)=O)CO[C@@H]1C[C@@H]2O,,12,1 nM,9.3,
CCC(=O)O[C@H]1C(=O)[C@@]2(C)[C@H]([C@H](OC(=O)c3ccccc3)[C@]3(O)C[C@H](OC(=O)[C@H](O)[C@H](C=C(C)C)NC(=O)OC4CCCCC4)C(C)=C1C3(C)C)[C@]1(OC(C)=O)CO[C@@H]1C[C@@H]2O,,13,1.2 nM,6.4,
C=CCC[C@H](NC(=O)OC(C)(C)C)[C@@H](O)C(=O)O[C@H]1C[C@@]2(O)[C@@H](OC(=O)c3cccc(OC)c3)[C@@H]3[C@]4(OC(C)=O)CO[C@@H]4C[C@H](O)[C@@]3(C)C(=O)[C@H](OC(=O)CC)C(=C1C)C2(C)C,,6,0.9 nM,3.9,
COc1cccc(C(=O)O[C@H]2[C@@H]3[C@]4(OC(C)=O)CO[C@@H]4C[C@H](O)[C@@]3(C)C(=O)[C@H](OC(=O)OCc3ccccc3)C3=C(C)[C@@H](OC(=O)[C@H](O)[C@H](C=C(C)C)NC(=O)OC(C)(C)C)C[C@]2(O)C3(C)C)c1,,1.5,1.2 nM,7.5,
CCC(=O)O[C@H]1C(=O)[C@@]2(C)[C@H]([C@H](OC(=O)c3ccccc3)[C@]3(O)C[C@H](OC(=O)[C@H](O)[C@H](CC(C)C)NC(=O)OC4CCCC4)C(C)=C1C3(C)C)[C@]1(OC(C)=O)CO[C@@H]1C[C@@H]2O,,5.4,2.6 nM,6.8,
CC(=O)O[C@@]12CO[C@@H]1C[C@H](O)[C@@]1(C)C(=O)[C@H](OC(=O)C3CC3)C3=C(C)[C@@H](OC(=O)[C@H](O)[C@H](C=C(F)F)NC(=O)OC(C)(C)C)C[C@@](O)([C@@H](OC(=O)c4ccccc4)[C@H]21)C3(C)C,0.12 nM,,,,Ratio (MCF7 [1]): 50; IC50 (MCF7 [2]): 6 nM; IC50 (HT-29): 0.85 nM; IC50 (PANC-1): 5.85 nM
CC(=O)O[C@H]1C(=O)[C@@]2(C)[C@H]([C@H](OC(=O)c3ccccc3)[C@]3(O)[C@H]4OC/C=C/OCc5ccccc5C(=O)N[C@@H](c5ccccc5)[C@@H](O)C(=O)O[C@@H]4C(C)=C1C3(C)C)[C@]1(OC(C)=O)CO[C@@H]1C[C@@H]2O,1650 nM,,2070 nM,,IC50 [7]: 2280 nM; IC50 (HT-29): 523 nM; IC50 (A2780 [8]): 1480 nM; IC50 [9]: 10000 nM
CCC(=O)O[C@H]1C(=O)[C@@]2(C)[C@H]([C@H](OC(=O)c3ccccc3)[C@]3(O)C[C@H](OC(=O)[C@H](O)[C@H](C=C(C)C)NC(=O)C4=CCCCC4)C(C)=C1C3(C)C)[C@]1(OC(C)=O)CO[C@@H]1C[C@@H]2O,,9.2,1.2 nM,13,
CCC(=O)O[C@H]1C(=O)[C@@]2(C)[C@H]([C@H](OC(=O)c3ccccc3)[C@]3(O)C[C@H](OC(=O)[C@H](O)[C@H](C=C(C)C)NC(=O)C4CCCCC4)C(C)=C1C3(C)C)[C@]1(OC(C)=O)CO[C@@H]1C[C@@H]2O,,10,1.3 nM,18,
CCC(=O)O[C@H]1C(=O)[C@@]2(C)[C@H]([C@H](OC(=O)c3cccc(OC)c3)[C@]3(O)C[C@H](OC(=O)[C@H](O)[C@H](C=C(C)C)NC(=O)C4CC4)C(C)=C1C3(C)C)[C@]1(OC(C)=O)CO[C@@H]1C[C@@H]2O,,16,1.1 nM,15.6,
CCC(=O)O[C@H]1C(=O)[C@@]2(C)[C@H]([C@H](OC(=O)c3cccc(OC)c3)[C@]3(O)C[C@H](OC(=O)[C@H](O)[C@H](C=C(C)C)NC(=O)C4CCC4)C(C)=C1C3(C)C)[C@]1(OC(C)=O)CO[C@@H]1C[C@@H]2O,,9.4,1.6 nM,11,
CCC(=O)O[C@H]1C(=O)[C@@]2(C)[C@H]([C@H](OC(=O)c3cccc(OC)c3)[C@]3(O)C[C@H](OC(=O)[C@H](O)[C@H](C=C(C)C)NC(=O)OC4CCCCC4)C(C)=C1C3(C)C)[C@]1(OC(C)=O)CO[C@@H]1C[C@@H]2O,,12,1.23 nM,9.7,
CCC(=O)O[C@H]1C(=O)[C@@]2(C)[C@H]([C@H](OC(=O)c3ccccc3)[C@]3(O)C[C@H](OC(=O)[C@H](O)[C@H](C=C(C)C)NC(=O)C4CCC4)C(C)=C1C3(C)C)[C@]1(OC(C)=O)CO[C@@H]1C[C@@H]2O,,26,1.3 nM,34,
CC(=O)O[C@H]1C(=O)[C@@]2(C)[C@H]([C@H](OC(=O)c3ccccc3)[C@]3(O)[C@H]4OC/C=C/Cc5ccccc5C(=O)N[C@@H](c5ccccc5)[C@@H](O)C(=O)O[C@@H]4C(C)=C1C3(C)C)[C@]1(OC(C)=O)CO[C@@H]1C[C@@H]2O,12.3 nM,,12.2 nM,,IC50 [7]: 300 nM; IC50 (HT-29): 29.2 nM; IC50 (A2780 [8]): 114 nM; IC50 [9]: 592 nM
CCC(=O)O[C@H]1C(=O)[C@@]2(C)[C@H]([C@H](OC(=O)c3ccccc3)[C@]3(O)C[C@H](OC(=O)[C@H](O)[C@H](CC(C)C)NC(=O)C4CCCC4)C(C)=C1C3(C)C)[C@]1(OC(C)=O)CO[C@@H]1C[C@@H]2O,,10,6.3 nM,12,
CC(=O)O[C@@]1([C@@H]2/C(C)=C(/O)C(=O)C3=C(C)[C@@H](OC(=O)[C@H](O)[C@H](C=C(C)C)NC(=O)OC(C)(C)C)C[C@@](O)([C@H]2OC(=O)c2cccc(F)c2)C3(C)C)CO[C@@H]1CCO,,,,,IC50 (A2780 [10]): 6.9 nM; IC50 [11]: 2220 nM; IC50 [12]: 745 nM; IC50 (A2780 [8]): 6.1 nM; IC50 [13]: 4450 nM; IC50 (A2780 [14]): 4.9 nM
COc1ccc(CC(=O)O[C@H]2C(=O)[C@@]3(C)[C@H]([C@H](OC(=O)c4cccc(OC)c4)[C@]4(O)C[C@H](OC(=O)[C@H](O)[C@H](C=C(C)C)NC(=O)OC(C)(C)C)C(C)=C2C4(C)C)[C@]2(OC(C)=O)CO[C@@H]2C[C@@H]3O)cc1,,1,0.4 nM,3,

# From ChEMBL document CHEMBL1152321, “Recent advances in the chemistry and biology of new generation taxoids” (J Nat Prod, 2009)
